In US10611750B2, “Tetrahydroquinoline compositions as bet bromodomain inhibitors” (FORMA Therapeutics, Inc., priority 2013, dated 2020):

Legend:
[1] = system: acute myelocytic leukemia (AML) cell line MV4-11; experiment: Oncology cell growth assay (3-day proliferation, CellTiter-Glo); assay type: cell-based; conditions: Homo sapiens, MV4-11, 72 h, MV4-11 cells, 3000 cells/well, compounds listed under IC50 range headings, read-out: MV411 IC50 (gIC50, inhibition of proliferation)
Method: The impact of Example compounds on cancer cell proliferation was determined using the acute myelocytic leukemia (AML) cell line MV4-11 (ATCC) in a 3-day proliferation assay. MV4-11 cells were maintained in RPMI 1640 media supplemented with 10% FBS at 37° C. and an atmosphere of 5% CO2. For compound testing, compound dilutions series were prepared in DMSO via a 3-fold serial dilution from 2 mM to 0.001 mM in 384-well white flat bottom plates. The final compound concentrations in the wells were 10, 3.3, 1.1, 0.37, 0.12, 0.041, 0.013 and 0.0045 μM. MV4-11 cells were plated at a density of 3000 cells/well in final volume of 50 μl culture media and incubated for 72 hours. […] Luminescent signal from the CellTiter-Glo assay was read on an EnVision multilabel plate reader (PerkinElmer). Values for the concentration that inhibited cell growth by 50% (gIC50) between the DMSO control and background control (no cells) were determined using IDBS Activity Base software with a four parameter logistic curve fit by the equation y=A+((B−A)/(1+((C/x)^D))), wherein A denotes the bottom plateau of the curve, B denotes the top plateau of the curve, C denotes the x value at the middle of the curve, D denotes the slope factor, x denotes the original known x values, and y denotes the original known y values. Data was fitted using the Levenburg Marquardt algorithm.

[2] = target: T1, BRD4 Bromodomain 1 (BRD4 BD1) (Homo sapiens, UniProt O60885); experiment: AlphaScreen binding assay, BRD4 BD1; conditions: His-tagged BRD4 BD1 50 nM, biotinylated H4 (1-21) K5/8/12/16 tetra-acetylated peptide 50 nM, compounds listed under IC50 range headings
T1 construct: 44-168 and BRD4 BD2
Method: The binding of Example compounds to BRD4 Bromodomain 1 and BRD4 Bromodomain 2 was assessed using 384-well AlphaScreen assay technology. His-epitope tagged BRD4 BD144-168 and BRD4 BD2333-460 were cloned, expressed, and purified to homogeneity. BRD4 BD1 and BRD4 BD2 binding and inhibition was assessed by monitoring the engagement of biotinylated Histone H4 (1-21) K5/8/12/16 tetra-acetylated peptide with the targets using the AlphaScreen technology (PerkinElmer). Specifically, in a 384-well black or white flat bottom plate, BRD4 BD1 (50 nM final) or BRD4 BD2 (100 nM final) was combined with peptide (50 nM final for BD1 or 100 nM final for BD2) in 50 mM HEPES (pH 7.3), 100 mM NaCl, 0.1% (w/v) BSA, and 0.01% (w/v) Triton X-100 either in the presence of DMSO (final 1.25% DMSO) or compound dilution series in DMSO. Alpha streptavidin donor beads and Nickel-chelate acceptor beads were added to a final concentration of 10 μg/ml each. After a minimum of 1 hour equilibration, plates were read on a BMG PHERAstar FS multi-label reader (BMG LabTech). The half maximal inhibitory concentration (IC50) values were calculated using IDBS Activity Base software with a four parameter logistic curve fit by the equation y=A+((B−A)/(1+((C/x)^D))), wherein A denotes the bottom plateau of the curve, B denotes the top plateau of the curve, C denotes the x value at the middle of the curve, D denotes the slope factor, x denotes the original known x values, and y denotes the original known y values. Data was fitted using the Levenburg Marquardt algorithm.

| SMILES | IC50 [1] [µM] | IC50 [2] [µM] |
| --- | --- | --- |
| C[C@H]1CCc2c(ccc(-c3cn[nH]c3)c2OC2CCC2)N1C(=O)C1CC1 [I-54, (S)-(5-cyclobutoxy-2-methyl-6-(1H-pyrazol-4-yl)-3,4-dihydroquinolin-1 (2H)-yl)(cyclopropyl)methanone] | < 0.5 | 0.1 to 1 |
| C[C@H]1CCc2c(ccc(-c3cnn(C)c3)c2OC2CCC2)N1C(=O)C1CC1 [I-55, (S)-(5-cyclobutoxy-2-methyl-6-(1-methyl-1H-pyrazol-4-yl)-3,4-dihydroquinolin-1 (2H)-yl)(cyclopropyl)methanone] | < 0.5 | 0.1 to 1 |
| C[C@H]1CCc2c(ccc(-c3ccn[nH]3)c2OC2CCC2)N1C(=O)C1CC1 [I-56, (S)-(5-cyclobutoxy-2-methyl-6-(1H-pyrazol-5-yl)-3,4-dihydroquinolin-1(2H)-yl)(cyclopropyl)methanone] | 0.5 to 1 | 1 to 10 |
| C[C@H]1CCc2c(ccc(-c3cn(C)cn3)c2OC2CCC2)N1C(=O)C1CC1 [I-57, (S)-(5-cyclobutoxy-2-methyl-6-(1-methyl-1H-imidazol-4-yl)-3,4-dihydroquinolin-1(2H)-yl)(cyclopropyl)methanone] | < 0.5 | 0.1 to 1 |
| C[C@H]1CCc2c(OC3CCC3)c(-c3cnn(C4CC4)c3)cc(F)c2N1C(=O)C1CC1 [I-69, (S)-(5-cyclobutoxy-6-(1-cyclopropyl-1H-pyrazol-4-yl)-8-fluoro-2-methyl-3,4-dihydroquinolin-1(2H)-yl)(cyclopropyl)methanone] | 0.5 to 1 | 1 to 10 |
| C[C@H]1CCc2c(OC3CCC3)c(-c3cn[nH]c3)cc(F)c2N1C(=O)C1CC1 [I-70, (S)-(5-cyclobutoxy-8-fluoro-2-methyl-6-(1H-pyrazol-4-yl)-3,4-dihydroquinolin-1(2H)-yl)(cyclopropyl)methanone] | 0.5 to 1 | 1 to 10 |
| COC(=O)N1c2c(F)cc(-c3cnn(C4CC4)c3)c(OC3CCC3)c2CC[C@@H]1C [I-71, (S)-methyl 5-cyclobutoxy-6-(1-cyclopropyl-1H-pyrazol-4-yl)-8-fluoro-2-methyl-3,4-dihydroquinoline-1(2H)-carboxylate] | 0.5 to 1 | 0.1 to 1 |
| COC(=O)N1c2c(F)cc(-c3cn[nH]c3)c(OC3CCC3)c2CC[C@@H]1C [I-72, (S)-methyl 5-cyclobutoxy-8-fluoro-2-methyl-6-(1H-pyrazol-4-yl)-3,4-dihydroquinoline-1(2H)-carboxylate] | < 0.5 | 0.1 to 1 |
| CC(=O)N1c2c(F)cc(-c3cnn(C4CC4)c3)c(OC3CCC3)c2CC[C@@H]1C [I-73, (S)-1-(5-cyclobutoxy-6-(1-cyclopropyl-1H-pyrazol-4-yl)-8-fluoro-2-methyl-3,4-dihydroquinolin-1(2H)-yl)ethanone] | 0.5 to 1 | 0.1 to 1 |
| CC(=O)N1c2c(F)cc(-c3cn[nH]c3)c(OC3CCC3)c2CC[C@@H]1C [I-74, (S)-1-(5-cyclobutoxy-8-fluoro-2-methyl-6-(1H-pyrazol-4-yl)-3,4-dihydroquinolin-1(2H)-yl)ethanone] | 0.5 to 1 | 1 to 10 |
| CC(=O)N1c2c(F)c(F)c(-c3cnn(C4CC4)c3)c(OC3CCC3)c2CC[C@@H]1C [I-75, (S)-1-(5-cyclobutoxy-6-(1-cyclopropyl-1H-pyrazol-4-yl)-7,8-difluoro-2-methyl-3,4-dihydroquinolin-1 (2H)-yl)ethanone] | > 1 | ≥ 10 |
| C[C@H]1CCc2c(ccc(-c3cnn(C4CCNCC4)c3)c2Oc2cccc(Cl)n2)N1C(=O)C1CC1 [I-94, (S)-(5-(6-chloropyridin-2-yloxy)-2-methyl-6-(1-(piperidin-4-yl)-1H-pyrazol-4-yl)-3,4-dihydroquinolin-1(2H)-yl)(cyclopropyl)methanone] | < 0.5 | 1 to 10 |
| C[C@H]1CCc2c(ccc(-c3cnn(C4CCNCC4)c3)c2Oc2ccccn2)N1C(=O)C1CC1 [I-95, (S)-cyclopropyl(2-methyl-6-(1-(piperidin-4-yl)-1H-pyrazol-4-yl)-5-(pyridin-2-yloxy)-3,4-dihydroquinolin-1(2H)-yl)methanone] | < 0.5 | 1 to 10 |
| COC(=O)N1c2ccc(-c3cnn(C4CCNCC4)c3)c(Oc3ccccn3)c2CC[C@@H]1C [I-96, (S)-methyl 2-methyl-6-(1-(piperidin-4-yl)-1H-pyrazol-4-yl)-5-(pyridin-2-yloxy)-3,4-dihydroquinoline-1(2H)-carboxylate] | < 0.5 | 0.1 to 1 |
| C[C@H]1CCc2c(ccc(-c3cnn(C4CCNCC4)c3)c2Oc2cccc(F)n2)N1C(=O)C1CC1 [I-97, (S)-cyclopropyl(5-(6-fluoropyridin-2-yloxy)-2-methyl-6-(1-(piperidin-4-yl)-1H-pyrazol-4-yl)-3,4-dihydroquinolin-1(2H)-yl)methanone] | < 0.5 | 0.1 to 1 |
| COc1cccc(Oc2c(-c3cnn(C4CCNCC4)c3)ccc3c2CC[C@H](C)N3C(=O)C2CC2)n1 [I-98, (S)-cyclopropyl(5-(6-methoxypyridin-2-yloxy)-2-methyl-6-(1-(piperidin-4-yl)-1H-pyrazol-4-yl)-3,4-dihydroquinolin-1(2H)-yl)methanone] | < 0.5 | 0.1 to 1 |
| C[C@H]1CCc2c(OC3CCC3)c(-c3cnn(C4CCNCC4)c3)cc(F)c2N1C(=O)C1CC1 [I-103, (S)-(5-cyclobutoxy-8-fluoro-2-methyl-6-(1-(piperidin-4-yl)-1H-pyrazol-4-yl)-3,4-dihydroquinolin-1(2H)-yl)(cyclopropyl)methanone] | < 0.5 | 0.1 to 1 |
| CC(=O)N1c2c(F)cc(-c3cnn(C4CCNCC4)c3)c(OC3CCC3)c2CC[C@@H]1C [I-105, (S)-1-(5-cyclobutoxy-8-fluoro-2-methyl-6-(1-(piperidin-4-yl)-1H-pyrazol-4-yl)-3,4-dihydroquinolin-1(2H)-yl)ethanone] | < 0.5 | 0.1 to 1 |
| CC(=O)N1c2c(F)c(F)c(-c3cnn(C4CCNCC4)c3)c(OC3CCC3)c2CC[C@@H]1C [I-106, (S)-1-(5-cyclobutoxy-7,8-difluoro-2-methyl-6-(1-(piperidin-4-yl)-1H-pyrazol-4-yl)-3,4-dihydroquinolin-1 (2H)-yl)ethanone] | > 1 | 1 to 10 |
| COC(=O)N1c2ccc(-c3cnn(C4CC5CNCC5C4)c3)c(OC3CCC3)c2CC[C@@H]1C (stereo partly drawn) [I-109, (2S)-methyl 5-cyclobutoxy-2-methyl-6-(1-(octahydrocyclopenta[c]pyrrol-5-yl)-1H-pyrazol-4-yl)-3,4-dihydroquinoline-1(2H)-carboxylate] | < 0.5 | 0.1 to 1 |
| COC(=O)N1c2c(F)cc(-c3cnn(C4CCNCC4)c3)c(OC3CCC3)c2CC[C@@H]1C [I-110, (S)-methyl 5-cyclobutoxy-8-fluoro-2-methyl-6-(1-(piperidin-4-yl)-1H-pyrazol-4-yl)-3,4-dihydroquinoline-1(2H)-carboxylate] | < 0.5 | 0.1 to 1 |
| C[C@H]1CCc2c(ccc(-c3cnoc3)c2OC2CCC2)N1C(=O)C1CC1 [I-123, (S)-(5-cyclobutoxy-6-(isoxazol-4-yl)-2-methyl-3,4-dihydroquinolin-1(2H)-yl)(cyclopropyl)methanone] | > 1 | 1 to 10 |
| C[C@H]1CCc2c(OC3CCC3)c(-c3cn(C)nn3)cc(F)c2N1C(=O)C1CC1 [I-124, (S)-(5-cyclobutoxy-8-fluoro-2-methyl-6-(1-methyl-1H-1,2,3-triazol-4-yl)-3,4-dihydroquinolin-1 (2H)-yl)(cyclopropyl)methanone] | 0.5 to 1 | 0.1 to 1 |
| COC(=O)N1c2c(F)cc(-c3cn(C)nn3)c(OC3CCC3)c2CC[C@@H]1C [I-125, (S)-methyl 5-cyclobutoxy-8-fluoro-2-methyl-6-(1-methyl-1H-1,2,3-triazol-4-yl)-3,4-dihydroquinoline-1(2H)-carboxylate] | > 1 | 1 to 10 |
